Experimental data from ChEMBL document CHEMBL5625223 (Eur J Med Chem, 2023).

Assays:
[1] = biological target: T1, 5-hydroxytryptamine receptor 2A (Homo sapiens, UniProt P28223); experiment: Binding affinity to 5HT2A receptor (unknown origin) at 10 uM relative to control
[2] = biological target: T2, 5-hydroxytryptamine receptor 2B (Homo sapiens, UniProt P41595); experiment: Binding affinity to 5HT2B receptor (unknown origin) at 10 uM relative to control; conditions: filed as antagonist
[3] = biological target: T1, 5-hydroxytryptamine receptor 2A; experiment: Displacement of [3H]ketanserin from human 5-HT2A receptor expressed in HEK293 cells at 10 uM incubated for 1 hr relative to control; format: cell-based
Mu-type opioid receptor = Mu-type opioid receptor (Homo sapiens, UniProt P35372); experiment: Binding affinity to MOR (unknown origin) assessed as inhibition constant
Sequence of Mu-type opioid receptor (P35372 whole entry): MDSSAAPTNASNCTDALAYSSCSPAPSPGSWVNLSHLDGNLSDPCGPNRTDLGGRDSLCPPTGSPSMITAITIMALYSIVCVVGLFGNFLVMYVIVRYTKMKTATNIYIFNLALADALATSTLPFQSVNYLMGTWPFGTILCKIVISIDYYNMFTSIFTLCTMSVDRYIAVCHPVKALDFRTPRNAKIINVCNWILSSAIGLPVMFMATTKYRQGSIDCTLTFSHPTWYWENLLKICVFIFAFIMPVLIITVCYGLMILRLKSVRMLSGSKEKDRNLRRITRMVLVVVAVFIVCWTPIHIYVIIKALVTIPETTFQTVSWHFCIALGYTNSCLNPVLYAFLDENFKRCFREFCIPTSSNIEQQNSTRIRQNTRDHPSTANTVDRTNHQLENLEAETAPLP

[4] = biological target: T3, Adenosine receptor A3 (Homo sapiens) (UniProt P0DMS8); experiment: Displacement of […] from human A3AR expressed in HEK cells at 10 uM relative to control; format: cell-based
T3 sequence (whole entry): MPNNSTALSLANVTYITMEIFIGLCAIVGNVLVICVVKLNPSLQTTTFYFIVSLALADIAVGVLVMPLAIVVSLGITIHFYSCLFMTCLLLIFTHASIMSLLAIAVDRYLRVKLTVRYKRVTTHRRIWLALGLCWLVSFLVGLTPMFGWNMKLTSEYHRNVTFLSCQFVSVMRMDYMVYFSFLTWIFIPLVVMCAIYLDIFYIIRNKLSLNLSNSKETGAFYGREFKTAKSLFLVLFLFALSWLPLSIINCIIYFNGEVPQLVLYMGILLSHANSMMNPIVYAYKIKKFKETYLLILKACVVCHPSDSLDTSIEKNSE

[5] = biological target: T2, 5-hydroxytryptamine receptor 2B; experiment: Displacement of [3H]-LSD from human 5-HT2B receptor expressed in HEK cells assessed as inhibition constant incubated for 1 hr; format: cell-based
[6] = biological target: T4, 5-hydroxytryptamine receptor 2C (Homo sapiens) (UniProt P28335); experiment: Displacement of [3H]-Mesulergine from human 5-HT2C expressed in Flp-In-T-REx-293 cells at 10 uM incubated for 1 hr relative to control; format: cell-based
T4 sequence (whole entry): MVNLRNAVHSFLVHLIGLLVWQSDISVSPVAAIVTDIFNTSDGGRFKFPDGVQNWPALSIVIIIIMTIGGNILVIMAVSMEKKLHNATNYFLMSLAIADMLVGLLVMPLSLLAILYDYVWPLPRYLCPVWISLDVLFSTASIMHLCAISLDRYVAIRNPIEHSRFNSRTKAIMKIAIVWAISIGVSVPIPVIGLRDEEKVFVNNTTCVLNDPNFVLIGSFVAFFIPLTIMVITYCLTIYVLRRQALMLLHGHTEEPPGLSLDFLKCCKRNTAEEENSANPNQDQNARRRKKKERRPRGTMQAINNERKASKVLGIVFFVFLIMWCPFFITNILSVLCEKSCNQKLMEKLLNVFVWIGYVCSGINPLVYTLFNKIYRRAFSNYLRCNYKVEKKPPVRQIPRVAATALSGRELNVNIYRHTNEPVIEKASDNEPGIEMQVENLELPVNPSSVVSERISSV

[7] = biological target: Adenosine receptor A2a (Homo sapiens) (UniProt P29274); experiment: Displacement of […] from human A2AR expressed in HEK cells at 10 uM relative to control; format: cell-based
Sequence of Adenosine receptor A2a (Homo sapiens) (P29274 whole entry): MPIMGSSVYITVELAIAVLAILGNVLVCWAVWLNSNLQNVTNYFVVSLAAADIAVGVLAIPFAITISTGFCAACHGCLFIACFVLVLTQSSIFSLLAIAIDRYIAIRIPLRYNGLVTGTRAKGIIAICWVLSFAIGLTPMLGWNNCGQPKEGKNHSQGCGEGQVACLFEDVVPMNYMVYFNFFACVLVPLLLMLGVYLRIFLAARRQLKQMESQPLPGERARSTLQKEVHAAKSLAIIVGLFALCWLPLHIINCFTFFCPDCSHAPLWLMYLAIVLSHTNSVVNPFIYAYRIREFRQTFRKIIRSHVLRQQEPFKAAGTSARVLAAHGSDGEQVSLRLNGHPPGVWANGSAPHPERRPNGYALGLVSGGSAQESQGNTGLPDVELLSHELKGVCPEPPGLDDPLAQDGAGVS

[8] = biological target: 5-hydroxytryptamine receptor 1D (Homo sapiens, UniProt P28221); experiment: Binding affinity to 5HT1D receptor (unknown origin) assessed as inhibition constant
Sequence of 5-hydroxytryptamine receptor 1D (P28221 whole entry): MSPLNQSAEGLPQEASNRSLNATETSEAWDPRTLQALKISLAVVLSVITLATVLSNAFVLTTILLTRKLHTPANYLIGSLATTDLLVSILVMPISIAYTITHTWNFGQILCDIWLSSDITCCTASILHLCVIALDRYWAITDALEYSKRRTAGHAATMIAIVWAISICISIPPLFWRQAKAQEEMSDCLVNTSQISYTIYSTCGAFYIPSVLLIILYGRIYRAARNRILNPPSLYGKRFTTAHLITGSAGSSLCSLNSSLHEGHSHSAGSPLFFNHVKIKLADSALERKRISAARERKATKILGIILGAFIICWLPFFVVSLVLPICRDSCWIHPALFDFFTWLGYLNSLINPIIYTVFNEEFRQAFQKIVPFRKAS

D(4) dopamine receptor = biological target: T5, D(4) dopamine receptor (Homo sapiens, UniProt P21917); experiment: Binding affinity to dopamine D4 receptor (unknown origin) assessed as inhibition constant
T5 sequence (P21917 whole entry): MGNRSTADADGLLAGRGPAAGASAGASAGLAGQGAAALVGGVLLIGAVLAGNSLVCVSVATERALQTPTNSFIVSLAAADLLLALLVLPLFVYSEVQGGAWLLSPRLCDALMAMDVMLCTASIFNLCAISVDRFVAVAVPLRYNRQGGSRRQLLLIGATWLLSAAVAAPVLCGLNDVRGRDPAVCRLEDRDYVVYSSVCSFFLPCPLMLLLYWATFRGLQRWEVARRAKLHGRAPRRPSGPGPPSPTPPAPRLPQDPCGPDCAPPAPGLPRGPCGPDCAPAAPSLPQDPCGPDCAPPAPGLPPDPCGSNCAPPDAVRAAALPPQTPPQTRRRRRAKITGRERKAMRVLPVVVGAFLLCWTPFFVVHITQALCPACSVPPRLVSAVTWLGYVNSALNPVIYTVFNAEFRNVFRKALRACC

[9] = biological target: Beta-3 adrenergic receptor (Homo sapiens, UniProt P13945); experiment: Binding affinity to beta3 adrenergic receptor (unknown origin) assessed as inhibition constant
Sequence of Beta-3 adrenergic receptor (P13945 whole entry): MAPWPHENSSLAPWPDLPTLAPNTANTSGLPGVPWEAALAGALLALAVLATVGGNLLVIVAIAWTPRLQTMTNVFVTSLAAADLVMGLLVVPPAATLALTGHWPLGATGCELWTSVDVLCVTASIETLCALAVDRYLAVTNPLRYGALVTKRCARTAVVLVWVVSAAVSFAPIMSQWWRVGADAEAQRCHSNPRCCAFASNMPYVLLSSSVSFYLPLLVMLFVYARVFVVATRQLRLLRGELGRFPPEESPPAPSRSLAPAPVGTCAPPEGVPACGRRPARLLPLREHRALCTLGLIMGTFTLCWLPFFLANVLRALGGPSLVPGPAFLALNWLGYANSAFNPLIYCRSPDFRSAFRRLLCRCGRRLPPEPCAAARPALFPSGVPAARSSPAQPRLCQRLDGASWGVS

Adenosine receptor A3 = biological target: T6, Adenosine receptor A3 (Homo sapiens, UniProt P0DMS8); experiment: Displacement of […] from human A3AR expressed in HEK cells assessed as inhibition constant; format: cell-based
T6 sequence (P0DMS8 whole entry): T3 sequence (whole entry)

[10] = biological target: T7, Alpha-2C adrenergic receptor (Homo sapiens, UniProt P18825); experiment: Binding affinity to alpha2C receptor (unknown origin) assessed as inhibition constant
T7 sequence (P18825 whole entry): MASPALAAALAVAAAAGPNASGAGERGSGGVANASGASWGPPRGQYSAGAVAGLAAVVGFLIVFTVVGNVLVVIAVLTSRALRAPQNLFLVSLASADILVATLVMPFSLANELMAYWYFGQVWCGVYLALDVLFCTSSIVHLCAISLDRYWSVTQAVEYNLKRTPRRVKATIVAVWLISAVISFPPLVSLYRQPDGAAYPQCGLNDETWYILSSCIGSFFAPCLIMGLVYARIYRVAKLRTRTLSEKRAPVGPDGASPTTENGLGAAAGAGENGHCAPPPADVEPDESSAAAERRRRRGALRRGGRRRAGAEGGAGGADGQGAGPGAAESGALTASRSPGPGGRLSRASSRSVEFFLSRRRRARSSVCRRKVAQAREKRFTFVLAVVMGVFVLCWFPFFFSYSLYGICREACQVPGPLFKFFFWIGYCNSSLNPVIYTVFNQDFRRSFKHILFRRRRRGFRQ

[11] = biological target: T2, 5-hydroxytryptamine receptor 2B; experiment: Displacement of [3H]-LSD from human 5-HT2B receptor expressed in HEK cells at 10 uM incubated for 1 hr relative to control; format: cell-based
[12] = biological target: T8, Adenosine receptor A1 (Homo sapiens) (UniProt P30542); experiment: Displacement of […] from human A1AR expressed in Flp-In-T-REx-293 cells at 1 uM relative to control; format: cell-based; conditions: filed as agonist
T8 sequence (whole entry): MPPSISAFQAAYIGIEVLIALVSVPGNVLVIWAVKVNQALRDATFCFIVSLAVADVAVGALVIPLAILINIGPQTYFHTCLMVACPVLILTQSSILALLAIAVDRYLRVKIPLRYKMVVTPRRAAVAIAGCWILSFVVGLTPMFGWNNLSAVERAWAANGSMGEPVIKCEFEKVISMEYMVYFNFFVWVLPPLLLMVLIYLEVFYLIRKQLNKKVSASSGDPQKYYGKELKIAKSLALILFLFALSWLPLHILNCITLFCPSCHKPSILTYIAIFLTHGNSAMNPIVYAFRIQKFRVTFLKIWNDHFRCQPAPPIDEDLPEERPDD

Adenosine receptor A1 = biological target: T9, Adenosine receptor A1 (Homo sapiens, UniProt P30542); experiment: Displacement of […] from human A1AR expressed in Flp-In-T-REx-293 cells assessed as inhibition constant; format: cell-based
T9 sequence (P30542 whole entry): T8 sequence (whole entry)

Translocator protein = Translocator protein (Homo sapiens, UniProt P30536); experiment: Binding affinity to TSPO (unknown origin) assessed as inhibition constant
Sequence of Translocator protein (P30536 whole entry): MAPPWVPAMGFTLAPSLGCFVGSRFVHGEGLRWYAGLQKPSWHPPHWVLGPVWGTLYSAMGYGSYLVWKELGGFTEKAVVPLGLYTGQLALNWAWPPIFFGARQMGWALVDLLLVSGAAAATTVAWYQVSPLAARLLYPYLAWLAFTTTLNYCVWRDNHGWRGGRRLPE

[13] = biological target: T10, 5-hydroxytryptamine receptor 2C (Homo sapiens, UniProt P28335); experiment: Displacement of [3H]-Mesulergine from human 5-HT2C expressed in Flp-In-T-REx-293 cells assessed as inhibition constant incubated for 1 hr; format: cell-based; conditions: read-out: Ki
T10 sequence (P28335 whole entry): T4 sequence (whole entry)

[14] = biological target: T4, 5-hydroxytryptamine receptor 2C (Homo sapiens); conditions: Flp-In-T-REx-293, filed as antagonist, time 1.0 hrs
[15] = biological target: T1, 5-hydroxytryptamine receptor 2A; conditions: Flp-In-T-REx-293, time 1.0 hrs
Histamine H1 receptor = Histamine H1 receptor (Homo sapiens, UniProt P35367); experiment: Binding affinity to histamine H1 receptor (unknown origin) assessed as inhibition constant
Sequence of Histamine H1 receptor (P35367 whole entry): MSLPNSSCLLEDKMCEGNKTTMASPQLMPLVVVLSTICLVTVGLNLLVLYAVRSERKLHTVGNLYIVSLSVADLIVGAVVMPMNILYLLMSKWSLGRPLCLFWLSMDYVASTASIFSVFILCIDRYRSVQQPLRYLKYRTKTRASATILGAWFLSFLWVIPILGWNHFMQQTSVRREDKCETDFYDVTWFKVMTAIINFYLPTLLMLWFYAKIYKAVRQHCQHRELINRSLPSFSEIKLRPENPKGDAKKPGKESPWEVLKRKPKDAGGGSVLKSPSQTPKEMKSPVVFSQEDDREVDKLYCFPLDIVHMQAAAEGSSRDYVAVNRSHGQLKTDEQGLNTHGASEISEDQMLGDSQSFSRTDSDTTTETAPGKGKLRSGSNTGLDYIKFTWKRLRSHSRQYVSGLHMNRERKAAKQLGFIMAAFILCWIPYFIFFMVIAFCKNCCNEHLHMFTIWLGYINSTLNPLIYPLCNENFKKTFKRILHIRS

T2 sequence (P41595 whole entry): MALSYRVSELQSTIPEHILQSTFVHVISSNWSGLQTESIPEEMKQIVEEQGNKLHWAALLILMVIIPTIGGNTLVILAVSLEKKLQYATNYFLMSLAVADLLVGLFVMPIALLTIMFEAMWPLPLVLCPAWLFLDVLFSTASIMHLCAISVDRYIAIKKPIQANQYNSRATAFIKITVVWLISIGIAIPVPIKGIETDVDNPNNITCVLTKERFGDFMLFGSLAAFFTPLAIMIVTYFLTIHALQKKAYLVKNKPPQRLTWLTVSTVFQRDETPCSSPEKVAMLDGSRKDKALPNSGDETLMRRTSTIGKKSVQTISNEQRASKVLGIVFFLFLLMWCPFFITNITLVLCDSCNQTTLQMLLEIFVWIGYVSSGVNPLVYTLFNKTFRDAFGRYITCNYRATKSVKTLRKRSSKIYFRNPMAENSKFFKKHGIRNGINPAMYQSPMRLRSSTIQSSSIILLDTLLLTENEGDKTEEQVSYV
T1 sequence (P28223 whole entry): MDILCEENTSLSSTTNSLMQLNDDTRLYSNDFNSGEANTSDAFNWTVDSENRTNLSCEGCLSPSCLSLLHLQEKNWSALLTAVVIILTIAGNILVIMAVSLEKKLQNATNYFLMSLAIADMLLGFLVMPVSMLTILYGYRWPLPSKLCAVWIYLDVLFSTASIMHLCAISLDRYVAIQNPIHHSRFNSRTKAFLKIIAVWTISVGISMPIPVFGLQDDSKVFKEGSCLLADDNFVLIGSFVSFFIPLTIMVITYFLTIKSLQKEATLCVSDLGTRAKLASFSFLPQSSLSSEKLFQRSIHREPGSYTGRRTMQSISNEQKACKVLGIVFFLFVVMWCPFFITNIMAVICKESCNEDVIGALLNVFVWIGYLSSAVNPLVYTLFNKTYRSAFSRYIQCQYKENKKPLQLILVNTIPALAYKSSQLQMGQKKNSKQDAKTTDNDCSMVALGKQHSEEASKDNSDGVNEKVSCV

In the case of `OC[C@H]1O[C@@H](n2cnc3c(NC(C4CCC4)C4CCC4)nc(Cl)nc32)[C@H](O)[C@@H]1O`, the Activity [1] is reported as 31% and the Activity [2] is reported as 47%.

`O[C@H]1[C@H](n2cnc3c(NC(C4CCCC4)C4CCCC4)nc(Cl)nc32)[C@H]2C[C@@]2(CSc2ccccc2F)[C@H]1O` was tested, and the Activity [3] was 36%, the Ki (Mu-type opioid receptor) was 4900 nM and the Activity [4] was 1%. It also gave a Ki [5] of 640 nM, an Activity [6] of 37% and an Activity [7] of -10%.

In the case of `CCSC[C@@]12C[C@@H]1[C@@H](n1cnc3c(NC(C4CCCC4)C4CCCC4)nc(Cl)nc31)[C@H](O)[C@@H]2O`, the Ki [8] is reported as 5200 nM, the Activity [3] is reported as 38% and the Ki (D(4) dopamine receptor) is reported as 3600 nM. The Ki [9] was 1500 nM, the Ki (Adenosine receptor A3) was 6280 nM and the Activity ([6]; filed as antagonist) was 47%. The Ki [10] was 2100 nM and the Activity [7] was -48%.

Molecule `Clc1nc(NCC2CC2)c2nc[nH]c2n1` has an Activity [11] of 29% and an Activity [12] of 49%.

`OC[C@@]12C[C@@H]1[C@@H](n1cnc3c(NC(C4CCC4)C4CCC4)nc(I)nc31)[C@H](O)[C@@H]2O` was tested, and the Activity [1] was 16%, the Ki (Adenosine receptor A3) was 34300 nM and the Ki (Adenosine receptor A1) was 204 nM. For the same molecule, the Ki (Translocator protein) was 2100 nM and the Activity [7] was 37%.

With `OC[C@@]12C[C@@H]1[C@@H](n1cnc3c(N[C@@H](C4CCC4)C4CC4)nc(I)nc31)[C@H](O)[C@@H]2O` the Ki [13] was 552 nM, the Activity [3] was 26% and the pKb [14] was 6.83. For the same molecule, the Activity ([4]; filed as agonist) was 42%, the pKb [15] was < 5 and the Ki (Adenosine receptor A1) was 63.9 nM. For the same molecule, the Ki (Histamine H1 receptor) was 2100 nM.
